Data published in patent publication US8598223B2, “Crystalline forms of 4, 4′-[4-fluoro-7-({4-[4-(3-fluoro-2-methylphenyl) butoxy] phenyl} ethynyl)-2-methyl-1H-indole-1,3-diyl] dibutanoic acid, 4,4′-[2-methyl-7-({4-[4-(pentafluorophenyl) butoxy] phenyl} ethynyl)-1H-indole-1, 3-diyl] dibutanoic acid, and 4,4′-[4-fluoro-2-methyl-7-({4-[4-(2, 3, 4, …” (Ono Pharmaceutical Co., Ltd., priority 2010, dated 2013).
Read-outs that look alike come from different tables or passages of the source.

Legend:
[1] = tested on: LTD4-induced bronchoconstriction in guinea pigs; assay: LTD4-induced bronchoconstriction in guinea pigs (Konzett-Rossler method); assay type: in vivo, guinea pig; conditions: oral, 1 mg/kg
Protocol: Guinea pigs were anesthetized by injection of pentobarbital sodium (75 mg/kg, i.p.), and a polyethylene cannula was inserted into the trachea which had been incised. For the purpose of administration of LTD4, a catheter was inserted into the jugular vein of the animal. One side of the cannula inserted into the trachea was connected with a volume-controlled respirator to perform artificial respiration at a ventilation volume of 5 mL and at a ventilation rate of 70 times/min. LTD4 was administrated intravenously to induce the bronchoconstriction, and the airway resistance was measured using the Konzett-Rossler method. The bronchoconstriction response was measured for 10 minutes after LTD4-challenge, and the ratio of bronchoconstriction response was determined and represented as a percentage of the maximal increase in insufflation pressure achieved by clamping off the trachea. In this connection, the crystalline forms of the present invention were orally administered 1, 2, 4, 8, 12, 18, 24, 36 and 48 hours prior to challenge by LTD4.

[2] = Photostability test (D65 lamp); assay type: physicochemical; conditions: not less than 1.2 million lux hours and 200 W·h/m^2, 25° C.±2° C., visual check
Protocol: Each crystalline form of compound I, compound II, and compound III were weighed about 5 mg, and were exposed to light from D65 lamp providing an overall illumination of not less than 1.2 million lux hours and an integrated near ultraviolet energy of not less than 200 W·h/m^2 under 25° C.±2° C.

[3] = Thermodynamical stability test by differential scanning calorimetry (DSC); assay type: physicochemical
Protocol: The thermodynamical stability of each crystalline form of compound I, compound II, and compound III was analyzed by differential scanning calorimetry (DSC). As a result, it was apparent that the crystalline forms of the present invention are ones which have improved thermodynamical stability.

[4] = administered 2 hours prior to LTD4 challenge
[5] = administered 24 hours prior to LTD4 challenge

Row | SMILES | bronchoconstriction inhibition ratio [1, 4] [%] | bronchoconstriction inhibition ratio [1, 5] [%] | photostability of the crystalline form [2] | thermodynamical stability of the crystalline form [3] | other results
1 | Cc1c(F)cccc1CCCCOc1ccc(/C=C/c2ccc(F)c3c(CCCC(=O)O)c(C)n(CCCC(=O)O)c23)cc1 [Comparative Example 4, 4,4′-{4-fluoro-7-[(E)-2-{4-[4-(3-fluoro-2-methylphenyl)butoxy]phenyl}vinyl]-2-methyl-1H-indole-1,3-diyl}dibutanoic acid] | 97.5 | 43.2 | – | – | –
2 | Cc1c(CCCC(=O)O)c2cccc(/C=C/c3ccc(OCCCCc4c(F)c(F)c(F)c(F)c4F)cc3)c2n1CCCC(=O)O [Comparative Example 5, 4,4′-{2-methyl-7-[(E)-2-{4-[4-(pentafluorophenyl)butoxy]phenyl}vinyl]-1H-indole-1,3-diyl}dibutanoic acid] | 98.6 | 74.1 | – | – | –
3 | Cc1c(CCCC(=O)O)c2c(F)ccc(/C=C/c3ccc(OCCCCc4c(F)cc(F)c(F)c4F)cc3)c2n1CCCC(=O)O [Comparative Example 6, 4,4′-{4-fluoro-2-methyl-7-[(E)-2-{4-[4-(2,3,4,6-tetrafluorophenyl)butoxy]phenyl}vinyl]-1H-indole-1,3-diyl}dibutanoic acid] | 53.2 | 16.1 | – | – | –
4 | Cc1c(F)cccc1CCCCOc1ccc(C#Cc2ccc(F)c3c(CCCC(=O)O)c(C)n(CCCC(=O)O)c23)cc1 [Example 12, 4,4′-[4-fluoro-7-({4-[4-(3-fluoro-2-methylphenyl)butoxy]phenyl}ethynyl)-2-methyl-1H-indole-1,3-diyl]dibutanoic acid] | – | – | photostable | the most thermodynamically stable crystalline form | fusion enthalpy ([3]; listed as type C crystal of compound I): 105.6 J/g
5 | Cc1c(CCCC(=O)O)c2cccc(C#Cc3ccc(OCCCCc4c(F)c(F)c(F)c(F)c4F)cc3)c2n1CCCC(=O)O [Example 14, 4,4′-[2-methyl-7-({4-[4-(pentafluorophenyl)butoxy]phenyl}ethynyl)-1H-indole-1,3-diyl]dibutanoic acid] | 98.5 | 99.2 | more photostable than type A crystal | thermodynamically stable | –
6 | Cc1c(CCCC(=O)O)c2c(F)ccc(C#Cc3ccc(OCCCCc4c(F)cc(F)c(F)c4F)cc3)c2n1CCCC(=O)O [Example 16, 4,4′-[4-fluoro-2-methyl-7-({4-[4-(2,3,4,6-tetrafluorophenyl)butoxy]phenyl}ethynyl)-1H-indole-1,3-diyl]dibutanoic acid] | – | – | photostable | thermodynamically stable | –
7 | Cc1c(F)cccc1CCCCOc1ccc(C#Cc2ccc(F)c3c(CCCC(=O)O)c(C)n(CCCC(=O)O)c23)cc1 [type A crystal of compound I, 4,4′-[4-fluoro-7-({4-[4-(3-fluoro-2-methylphenyl)butoxy]phenyl}ethynyl)-2-methyl-1H-indole-1,3-diyl]dibutanoic acid] | – | – | – | – | fusion enthalpy [3]: 96.3 J/g
8 | Cc1c(CCCC(=O)O)c2cccc(C#Cc3ccc(OCCCCc4c(F)c(F)c(F)c(F)c4F)cc3)c2n1CCCC(=O)O [type A crystal of compound II, 4,4′-[2-methyl-7-({4-[4-(pentafluorophenyl)butoxy]phenyl}ethynyl)-1H-indole-1,3-diyl]dibutanoic acid] | – | – | – | – | degree of change in color to yellow after test as compared to before test ([2]; type A versus type B crystal): bigger
9 | Cc1c(F)cccc1CCCCOc1ccc(C#Cc2ccc(F)c3c(CCCC(=O)O)c(C)n(CCCC(=O)O)c23)cc1 [type B crystal of compound I, 4,4′-[4-fluoro-7-({4-[4-(3-fluoro-2-methylphenyl)butoxy]phenyl}ethynyl)-2-methyl-1H-indole-1,3-diyl]dibutanoic acid] | – | – | – | – | fusion enthalpy [3]: 57.2 J/g
